The results in this text go back to US9642831B2, “Substituted chromanes and method of use” (AbbVie S.á.r.l., priority 2014, dated 2017).

In general, EC50 refers to the midpoint of the concentration-response curve. A higher EC50 goes with a less potent agent. Usually Emax stands for the size of the effect at its maximum, as opposed to the concentration needed.

The experiment deals with F508delCFTR (Homo sapiens, UniProt P13569, DEL508-508). As to the kind of experiment: Cell Surface Expression-Horse Radish Peroxidase (CSE-HRP) assay. Conditions: CFBE4lo-F508delCFTR-HRP cells; for EC50: 18-24 hours at 33° C., 8-point curve, highest concentration 20 μM, luminescence readout; for Emax: maximum % activity at any tested concentration, normalized to on-plate positive control (3 μM Example 1). The arrangement: expressed in transfected cells; host or cells: CFBE41o- human lung derived epithelial cell line, doxycycline-inducible. Format: cell-based. The source says: Cell Surface Expression-Horse Radish Peroxidase (CSE-HRP) Assay:
A cellular assay for measuring the F508delCFTR cell surface expression after correction with test compounds was developed in human lung derived epithelial cell line (CFBE4lo-) (Veit G et al, (2012) Mol Biol Cell. 23(21): 4188-4202). This was achieved by expressing the F508delCFTR mutation along with a horseradish peroxidase (HRP) in the fourth exofacial loop and then measuring the HRP activity using luminescence readout from these cells, CFBE4lo-F508delCFTR-HRP, that were incubated overnight with the test corrector compounds. Briefly, for this primary assay, the CFBE4lo-F508delCFTR-HRP cells were plated in 384-well plates (Greiner Bio-one; Cat 781080) at 4,000 cells/well along with 0.5 μg/mL doxycycline to induce the F508delCFTR-HRP expression and further incubated at 37° C., 5% CO2 for 72 hours. The test compounds were then added at the required concentrations and further incubated for 18-24 hours at 33° C. The highest concentration tested was 20 μM with an 8-point concentration response curve using a 3-fold dilution. Three replicate plates were run to determine one EC50. All plates contained negative controls (dimethyl sulfoxide, DMSO) and positive controls (3 μM of 3-[(2R,4R)-4-({[1-(2,2-difluoro-1,3-benzodioxol-5-yl)cyclopropyl]carbonyl}amino)-7-methoxy-3,4-dihydro-2H-chromen-2-yl]benzoic acid) as well as on-plate concentration response of the positive control. Post incubation, the plates were washed 5× times with Dulbecco's phosphate buffered saline (DPBS), followed by the addition of the HRP substrate, luminol (50 μL), and measuring the HRP activity using luminescence readout on EnVision® Multilabel Plate Reader (Perkin Elmer; product number 2104-0010). The raw counts from the experiment are analyzed using Accelrys® Assay Explorer v3.3.
Z′ greater than 0.5 was used as passing quality control criteria for the plates.
The Z′ is defined as: 1−[3*SDPositive Control+3*SDNegative Control/Absolute(MeanPositive Control−MeanNegative Control)] wherein “SD” is standard deviation.
The % activity measured at each of the 8 test concentrations of the test compound was normalized to the on-plate positive control using the following formula: % activity=[(test compound response−DMSO response)/(positive control response−DMSO response)]*100
The maximum % activity achieved for the test compound at any tested concentration is presented in Table 1 along with the EC50 calculated using the following general sigmoidal curve with variable Hill slope equation (described as Model 42 in the Accelrys® Assay Explorer v3.3 software): y=(a−d)/(1+(x/c)^b)+d
General sigmoidal curve with concentration, response, top, bottom, EC50 and Hill slope.
This model describes a sigmoidal curve with an adjustable baseline, a. The equation can be used to fit curves where response is either increasing or decreasing with respect to the independent variable, “x”.
“x” is a concentration of drug under test.
“a” is the maximum response, and “d” is the minimum response
“c” is the inflection point (EC50) for the curve. That is, “y” is halfway between the lower and upper asymptotes when x=c.
“b” is the slope-factor or Hill coefficient. The sign of b is positive when the response increases with increasing dose and is negative when the response decreases with increasing dose (inhibition).

Chain of F508delCFTR (P13569 with tags, fused parts or gaps DEL508-508): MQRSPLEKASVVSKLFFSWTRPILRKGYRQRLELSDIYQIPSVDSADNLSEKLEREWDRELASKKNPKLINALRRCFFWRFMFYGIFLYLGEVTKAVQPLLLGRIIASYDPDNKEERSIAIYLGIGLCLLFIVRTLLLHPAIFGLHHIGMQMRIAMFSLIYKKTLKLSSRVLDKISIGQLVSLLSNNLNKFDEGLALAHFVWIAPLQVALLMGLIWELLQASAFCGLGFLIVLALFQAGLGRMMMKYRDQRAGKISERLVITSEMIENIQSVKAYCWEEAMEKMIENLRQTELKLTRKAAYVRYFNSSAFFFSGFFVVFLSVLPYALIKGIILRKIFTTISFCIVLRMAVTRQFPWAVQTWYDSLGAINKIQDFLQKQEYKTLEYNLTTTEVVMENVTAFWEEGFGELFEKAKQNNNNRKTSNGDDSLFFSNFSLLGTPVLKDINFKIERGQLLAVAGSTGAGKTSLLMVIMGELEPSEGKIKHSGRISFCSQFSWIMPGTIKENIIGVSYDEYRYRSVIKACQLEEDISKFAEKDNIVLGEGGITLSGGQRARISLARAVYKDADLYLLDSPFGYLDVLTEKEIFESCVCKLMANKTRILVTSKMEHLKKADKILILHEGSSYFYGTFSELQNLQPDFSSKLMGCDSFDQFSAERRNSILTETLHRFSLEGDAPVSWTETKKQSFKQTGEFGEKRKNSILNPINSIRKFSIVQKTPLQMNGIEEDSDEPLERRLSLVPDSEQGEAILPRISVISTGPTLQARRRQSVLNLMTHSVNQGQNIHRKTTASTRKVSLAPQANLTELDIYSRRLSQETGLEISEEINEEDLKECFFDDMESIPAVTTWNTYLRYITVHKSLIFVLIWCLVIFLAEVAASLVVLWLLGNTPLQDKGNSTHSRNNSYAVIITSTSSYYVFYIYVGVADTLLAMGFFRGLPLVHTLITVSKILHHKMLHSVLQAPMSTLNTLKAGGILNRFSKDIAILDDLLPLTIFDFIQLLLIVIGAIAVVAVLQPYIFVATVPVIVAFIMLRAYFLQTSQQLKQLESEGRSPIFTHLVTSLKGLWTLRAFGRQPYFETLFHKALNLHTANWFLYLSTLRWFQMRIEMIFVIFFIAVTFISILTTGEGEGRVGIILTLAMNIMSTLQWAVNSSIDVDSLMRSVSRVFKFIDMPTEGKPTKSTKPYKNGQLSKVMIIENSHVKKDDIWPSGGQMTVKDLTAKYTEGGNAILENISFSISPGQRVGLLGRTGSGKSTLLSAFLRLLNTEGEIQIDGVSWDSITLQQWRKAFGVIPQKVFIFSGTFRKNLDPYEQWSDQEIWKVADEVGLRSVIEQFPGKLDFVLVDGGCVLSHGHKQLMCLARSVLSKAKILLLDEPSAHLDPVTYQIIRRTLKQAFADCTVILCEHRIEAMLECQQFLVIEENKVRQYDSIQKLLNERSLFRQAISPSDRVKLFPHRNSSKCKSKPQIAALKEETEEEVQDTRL

Compound `COc1ccc2c(c1)O[C@@H](C(=O)NC1(C(F)(F)F)COC1)C[C@H]2NC(=O)C1(c2ccc3c(c2)OC(F)(F)O3)CC1` (racemic) [Example 173, rac-(2R,4R)-4-({[1-(2,2-difluoro-1,3-benzodioxol-5-yl)cyclopropyl]carbonyl}amino)-7-methoxy-N-[3-(trifluoromethyl)oxetan-3-yl]-3,4-dihydro-2H-chromene-2-carboxamide] registered an EC50 of 2150 nM and an Emax of 27%.
Take `COc1ccc2c(c1)O[C@@H](C(=O)N1CCC(F)(F)CC1)C[C@H]2NC(=O)C1(c2ccc3c(c2)OC(F)(F)O3)CC1` (racemic) [Example 174, rac-1-(2,2-difluoro-1,3-benzodioxol-5-yl)-N-{(2R,4R)-2-[(4,4-difluoropiperidin-1-yl)carbonyl]-7-methoxy-3,4-dihydro-2H-chromen-4-yl}cyclopropanecarboxamide]: the EC50 stood at 1730 nM and the Emax stood at 55%.
Compound `COc1ccc2c(c1)O[C@@H](C(=O)N1CCCOCC1)C[C@H]2NC(=O)C1(c2ccc3c(c2)OC(F)(F)O3)CC1` (racemic) [Example 175, rac-1-(2,2-difluoro-1,3-benzodioxol-5-yl)-N-[(2R,4R)-7-methoxy-2-(1,4-oxazepan-4-ylcarbonyl)-3,4-dihydro-2H-chromen-4-yl]cyclopropanecarboxamide] had an EC50 of 3200 nM and an Emax of 54%.
For `COc1ccc2c(c1)O[C@@H](C(=O)N(C)C1COC1)C[C@H]2NC(=O)C1(c2ccc3c(c2)OC(F)(F)O3)CC1` (racemic) [Example 176, rac-(2R,4R)-4-({[1-(2,2-difluoro-1,3-benzodioxol-5-yl)cyclopropyl]carbonyl}amino)-7-methoxy-N-methyl-N-(oxetan-3-yl)-3,4-dihydro-2H-chromene-2-carboxamide], the response was half-maximal at 9630 nM (EC50) and the Emax came out at 30%.
For the compound `COc1ccc2c(c1)O[C@@H](C(=O)N1CCOCC1)C[C@H]2NC(=O)C1(c2ccc3c(c2)OC(F)(F)O3)CC1` (racemic) [Example 177, rac-1-(2,2-difluoro-1,3-benzodioxol-5-yl)-N-[(2R,4R)-7-methoxy-2-(morpholin-4-ylcarbonyl)-3,4-dihydro-2H-chromen-4-yl]cyclopropanecarboxamide], the midpoint of the response, the EC50, lay at 2910 nM and the Emax is 56%.
In turn, `COc1ccc2c(c1)O[C@@H](C(=O)NC(CO)c1ccccc1OC)C[C@H]2NC(=O)C1(c2ccc3c(c2)OC(F)(F)O3)CC1` (mixture of isomers) [Example 178, rac-(2R,4R)-4-({[1-(2,2-difluoro-1,3-benzodioxol-5-yl)cyclopropyl]carbonyl}amino)-N-[2-hydroxy-1-(2-methoxyphenyl)ethyl]-7-methoxy-3,4-dihydro-2H-chromene-2-carboxamide] gave an EC50 of 740 nM and an Emax of 64%.
Consider `COc1ccc2c(c1)O[C@@H](C(=O)NCCc1cccc(O)c1)C[C@H]2NC(=O)C1(c2ccc3c(c2)OC(F)(F)O3)CC1` (racemic) [Example 179, rac-(2R,4R)-4-({[1-(2,2-difluoro-1,3-benzodioxol-5-yl)cyclopropyl]carbonyl}amino)-N-[2-(3-hydroxyphenyl)ethyl]-7-methoxy-3,4-dihydro-2H-chromene-2-carboxamide], for which the response was half-maximal at 800 nM (EC50) and the maximum response (Emax) turned out to be 69%.
In the case of `COc1ccc2c(c1)O[C@@H](C(=O)NC(CO)CO)C[C@H]2NC(=O)C1(c2ccc3c(c2)OC(F)(F)O3)CC1` (racemic) [Example 180, rac-(2R,4R)-4-({[1-(2,2-difluoro-1,3-benzodioxol-5-yl)cyclopropyl]carbonyl}amino)-N-(1,3-dihydroxypropan-2-yl)-7-methoxy-3,4-dihydro-2H-chromene-2-carboxamide], the EC50 amounted to 5930 nM and the Emax turned out to be 59%.
Compound `COc1ccc2c(c1)O[C@@H](C(=O)NC1c3ccccc3CC1O)C[C@H]2NC(=O)C1(c2ccc3c(c2)OC(F)(F)O3)CC1` (mixture of isomers) [Example 181, rac-(2R,4R)-4-({[1-(2,2-difluoro-1,3-benzodioxol-5-yl)cyclopropyl]carbonyl}amino)-N-(2-hydroxy-2,3-dihydro-1H-inden-1-yl)-7-methoxy-3,4-dihydro-2H-chromene-2-carboxamide] returned an EC50 of 1590 nM and an Emax of 57%.
On the same counts, the results for `COc1ccc2c(c1)O[C@@H](C(=O)Nc1ccccc1O)C[C@@H]2NC(=O)C1(c2ccc3c(c2)OC(F)(F)O3)CC1` (racemic) [Example 182, rac-(2R,4S)-4-({[1-(2,2-difluoro-1,3-benzodioxol-5-yl)cyclopropyl]carbonyl}amino)-N-(2-hydroxyphenyl)-7-methoxy-3,4-dihydro-2H-chromene-2-carboxamide] are 800 nM and 46%.
For `CCCN(CCO)C(=O)[C@H]1C[C@H](NC(=O)C2(c3ccc4c(c3)OC(F)(F)O4)CC2)c2ccc(OC)cc2O1` (racemic) [Example 183, rac-(2R,4S)-4-({[1-(2,2-difluoro-1,3-benzodioxol-5-yl)cyclopropyl]carbonyl}amino)-N-(2-hydroxyethyl)-7-methoxy-N-propyl-3,4-dihydro-2H-chromene-2-carboxamide], the EC50 worked out at 860 nM and the Emax is 67%.
Take `COc1ccc2c(c1)O[C@@H](C(=O)N(CCO)Cc1ccccc1)C[C@@H]2NC(=O)C1(c2ccc3c(c2)OC(F)(F)O3)CC1` (racemic) [Example 184, rac-(2R,4S)—N-benzyl-4-({[1-(2,2-difluoro-1,3-benzodioxol-5-yl)cyclopropyl]carbonyl}amino)-N-(2-hydroxyethyl)-7-methoxy-3,4-dihydro-2H-chromene-2-carboxamide]: the EC50 was 580 nM and the Emax was 73%.
On the same counts, the results for `COc1ccc2c(c1)O[C@@H](C(=O)N(C)CC(O)c1ccccc1)C[C@@H]2NC(=O)C1(c2ccc3c(c2)OC(F)(F)O3)CC1` (mixture of isomers) [Example 185, rac-(2R,4S)-4-({[1-(2,2-difluoro-1,3-benzodioxol-5-yl)cyclopropyl]carbonyl}amino)-N-(2-hydroxy-2-phenylethyl)-7-methoxy-N-methyl-3,4-dihydro-2H-chromene-2-carboxamide] are 640 nM and 77%.
In turn, `COc1ccc2c(c1)O[C@@H](C(=O)N1CCC(O)CC1)C[C@@H]2NC(=O)C1(c2ccc3c(c2)OC(F)(F)O3)CC1` (racemic) [Example 186, rac-1-(2,2-difluoro-1,3-benzodioxol-5-yl)-N-{(2R,4S)-2-[(4-hydroxypiperidin-1-yl)carbonyl]-7-methoxy-3,4-dihydro-2H-chromen-4-yl}cyclopropanecarboxamide] came in with an EC50 of 1360 nM and an Emax of 66%.
`COc1ccc2c(c1)O[C@@H](C(=O)N1CCN(CCO)CC1)C[C@@H]2NC(=O)C1(c2ccc3c(c2)OC(F)(F)O3)CC1` (racemic) [Example 187, rac-1-(2,2-difluoro-1,3-benzodioxol-5-yl)-N-[(2R,4S)-2-{[4-(2-hydroxyethyl)piperazin-1-yl]carbonyl}-7-methoxy-3,4-dihydro-2H-chromen-4-yl]cyclopropanecarboxamide] came in with an EC50 of 1950 nM and an Emax of 76%.
The compound `COc1ccc2c(c1)O[C@@H](C(=O)NCC(C)(C)O)C[C@@H]2NC(=O)C1(c2ccc3c(c2)OC(F)(F)O3)CC1` (racemic) [Example 188, rac-(2R,4S)-4-({[1-(2,2-difluoro-1,3-benzodioxol-5-yl)cyclopropyl]carbonyl}amino)-N-(2-hydroxy-2-methylpropyl)-7-methoxy-3,4-dihydro-2H-chromene-2-carboxamide] gave an EC50 of 4650 nM and an Emax of 43%.
